Where two headings read alike, the source gives them in different places.
Assays:
[1] = Hygroscopic nature of the solid; assay type: physicochemical
Tapped bulk density = assay type: physicochemical
[2] = Stability over shelf life (statement in words); conditions: over the shelf life period
[3] = Stability at 40 ± 2° C. & 75 ± 5% RH; assay type: physicochemical; conditions: for Assay: in % (unit assumed)
Procedure: (§1) In still another embodiment of the present invention, novel anhydrous crystalline polymorph of Ceftiofur sodium (Form A) of formula (I) having the following X-ray diffraction characteristic peaks (±0.2°2θ): 5.68, 6.54, 8.84, 12.82, 13.16, 16.33, 17.36, 18.71, 18.94, 20.25, 21.53, 22.11, 22.79, 24.44, 24.88, 25.46, and 27.00 in °2θ. The anhydrous crystalline Ceftiofur sodium of the present invention has moisture content in the range of 0.4 to 2.0%. The anhydrous Ceftiofur sodium (Form A) is prepared by drying the Ceftiofur sodium either under vacuum or under normal pressure at a temperature in the range of 60-125° C. till the moisture content reaches 0.4 to 2.0%. The moisture content of Ceftiofur sodium is measured by using Karl-Fisher technique. The following tables (Table 2 & 3) provide stability data of anhydrous crystalline Ceftiofur Sodium (Form A) prepared according to this invention. From this table it is evident that the anhydrous crystalline Ceftiofur Sodium prepared according this invention is very stable and highly pure, which is clearly indicated by total RS (Related substances) analysis & the stability data.

[4] = Stability at 25 ± 2° C. & 60 ± 5% RH; assay type: physicochemical; conditions: for Assay: in % (unit assumed)
Procedure: as §1

Question: What does the source list for CO/N=C(\C(=O)N[C@@H]1C(=O)N2C(C(=O)[O-])=C(CSC(=O)c3ccco3)CS[C@H]12)c1csc(N)n1.[Na+] [Amorphous, Ceftiofur sodium, reference compound]?
Answer: Nature (hygroscopicity) ([1]; listed as conventional amorphous Ceftiofur sodium): highly hygroscopic; Tapped Bulk density (Tapped bulk density): 0.5 g/mL; Stability ([2]; listed as amorphous Ceftiofur sodium): less stable

Question: Which Moisture Content ([3]; 3 Months) does the source give for CO/N=C(\C(=O)N[C@@H]1C(=O)N2C(C(=O)[O-])=C(CSC(=O)c3ccco3)CS[C@H]12)c1csc(N)n1.[Na+] [Form A, Ceftiofur sodium] here?
Answer: The Moisture Content was 1.08%.

Question: What about the Total RS (Related substances) ([3]; 3 Months) of the same compound?
Answer: Its Total RS (Related substances) is 0.19%.

Question: What about the Assay ([3]; 3 Months) of the same compound?
Answer: The Assay was 98.14.

Question: What about the Moisture Content ([3]; 6 month) of the same compound?
Answer: Its Moisture Content is 1.54%.

Question: And the Total RS (Related substances) ([3]; 6 month)?
Answer: The Total RS (Related substances) was 0.33%.

Question: What about the Assay ([3]; 6 month) of the same compound?
Answer: Its Assay is 98.64.

Question: And the Moisture Content ([3]; Initial)?
Answer: The Moisture Content was 1.05%.

Question: What about the Total RS (Related substances) ([3]; Initial) of the same compound?
Answer: Its Total RS (Related substances) is 0.15%.

Question: And the Assay ([3]; Initial)?
Answer: The Assay was 99.74.

Question: What about the Moisture Content ([4]; 3 Months) of the same compound?
Answer: The Moisture Content was 1.05%.

Question: And the Total RS (Related substances) ([4]; 3 Months)?
Answer: Its Total RS (Related substances) is 0.16%.

Question: What about the Assay ([4]; 3 Months) of the same compound?
Answer: The Assay was 98.84.

Question: What about the Moisture Content ([4]; 6 month) of the same compound?
Answer: The Moisture Content was 1.11%.

Question: What about the Total RS (Related substances) ([4]; 6 month) of the same compound?
Answer: Its Total RS (Related substances) is 0.21%.

Question: And the Assay ([4]; 6 month)?
Answer: Its Assay is 99.47.

Question: And the Moisture Content ([4]; Initial)?
Answer: Its Moisture Content is 1.05%.

Question: And the Total RS (Related substances) ([4]; Initial)?
Answer: Its Total RS (Related substances) is 0.15%.

Question: What about the Assay ([4]; Initial) of the same compound?
Answer: The Assay was 99.74.

Question: What about the “Nature (hygroscopicity)” value [1] of the same compound?
Answer: Its value is “Non-Hygroscopic”.

Question: What about the “Nature (hygroscopicity)” value ([1]; listed as anhydrous crystalline Ceftiofur sodium) of the same compound?
Answer: The value was “non-hygroscopic”.

Question: And the “Tapped Bulk density” value (Tapped bulk density)?
Answer: Its value is 0.7 g/mL.

Question: What about the Stability [2] of the same compound?
Answer: Its Stability is “good”.
